According to patent US20090318551A1, “USES OF ANALOGS OF 3-O-ACETYL-11-KETO-BETA-BOSWELLIC ACID” (priority 2004, published 2009):
Structures can show the parent of a compound that is named as a salt.

Experiments:
[1] = system: 5-Lipoxygenase; test: 5-Lox assay (colorimetric, ferric xylenol orange); type: biochemical; conditions: linoleic acid substrate, pH 6.3; for % inhibition @ 100 μM: 100 μM test substance; for % inhibition @ 250 μM: 250 μM test substance
Experimental: The AKBA analogs were screened for their 5-Lipoxygenase inhibitory potential using colorimetric method of Craig A. Gay et al (Anal Biochem., 304, 42 46, 2002). The assay mixture contained 50 mM phosphate buffer pH 6.3, 5-Lipoxygenase, various concentrations of test substances and linoleic acid in a total volume of 0.5 mL after 5 min incubation of above reaction mixture 0.5 ml ferric xylenol orange reagent was added and OD was measured after two minutes at 585 nm using spectrophotometer (varian). Controls were run along with test in a similar manner except using vehicle instead of test substance solution. Percent inhibition was calculated by comparing absorbance of test with that of control

[2] = system: Artemia salina; test: Brine shrimp lethality (BSL) assay; type: in vivo; conditions: nauplii, viability/mortality after 24 hr; for LC50: Artemia salina, read-out: LD50 in mcM
Text: Brine shrimp lethality (BSL) assay is a simple bench top bioassay developed by McLaughlin, et. al. (Studies in Natural Product Chemistry, 9, page 383, 1991 and Am. Chem. Soc. Symp. Series, 534, page 114, 1992) and the results obtained by this assay have been reported to be corroborative with the cytotoxicities determined in 9KB and 9PS cells. The procedure involves hatching Artemia salina cysts in a cone shaped vessel and collecting active nauplii after 48 hr and treating with known concentrations of test substances and vehicle (control) in tubes each tube containing 10 nauplii and checking viability/mortality after 24 hr. Percentage lethality was calculated by comparing mean values of control and test sets of three tubes each. LC50 values were obtained from the graph plotted micro molar concentration against percent lethality.

[3] = target: T1, 5-LO (Homo sapiens, UniProt P09917); conditions: compared with the six boswellic acids; cited from earlier work
T1 sequence (P09917 1-674): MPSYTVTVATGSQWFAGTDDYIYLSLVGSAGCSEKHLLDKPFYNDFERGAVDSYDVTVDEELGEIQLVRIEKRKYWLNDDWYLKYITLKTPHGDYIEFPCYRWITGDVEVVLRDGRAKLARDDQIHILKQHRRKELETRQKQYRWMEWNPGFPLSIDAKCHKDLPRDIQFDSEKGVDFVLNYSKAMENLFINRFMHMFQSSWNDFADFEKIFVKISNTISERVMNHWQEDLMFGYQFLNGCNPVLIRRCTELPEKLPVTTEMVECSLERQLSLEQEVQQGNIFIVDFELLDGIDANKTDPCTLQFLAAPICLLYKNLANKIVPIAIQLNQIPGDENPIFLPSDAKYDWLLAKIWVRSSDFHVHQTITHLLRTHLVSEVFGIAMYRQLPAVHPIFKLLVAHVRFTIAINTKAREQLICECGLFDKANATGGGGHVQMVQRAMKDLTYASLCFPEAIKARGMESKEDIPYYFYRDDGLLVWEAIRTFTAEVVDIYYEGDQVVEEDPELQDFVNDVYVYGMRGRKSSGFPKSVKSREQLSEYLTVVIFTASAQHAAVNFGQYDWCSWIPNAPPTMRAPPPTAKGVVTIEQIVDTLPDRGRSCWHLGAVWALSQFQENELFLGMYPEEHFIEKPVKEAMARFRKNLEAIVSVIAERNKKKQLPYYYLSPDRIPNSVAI

With “3-O-Acetyl-11-keto-β-boswellic acid [Compound B2, reference compound]” the “% inhibition @ 100 μM” value [1] was 18.7%, the “% inhibition @ 250 μM” value [1] was 31% and the “LD50 in mcM” value [2] was 5.5 mcM. For the same molecule, the “inhibitory activity against 5-LO (in words)” value [3] was “most pronounced inhibitory activity against 5-LO”.

With CC1CCC2(C)CCC3(C)C(=CC(=O)C4C5(C)CCC(OC=O)C(C)(C(=O)O)C5CCC43C)C2C1C (stereo not drawn) [Compound 1, 3-O-Formyl-11-keto-β-boswellic acid] the “% inhibition @ 250 μM” value [1] was 5.5% and the “LD50 in mcM” value [2] was 55.0 mcM.

In the case of C[C@@H]1CC[C@]2(C)CC[C@]3(C)C(=CC(=O)C4[C@@]5(C)CCC(OC(=O)CCl)[C@](C)(C(=O)O)C5CC[C@]43C)C2[C@H]1C (stereo partly drawn) [Compound 2, 3-O-(Chloroacetyl)-11-keto-β-boswellic acid], the “% inhibition @ 250 μM” value [1] was 3.12% and the LC50 [2] was 98 µM.

With COc1cc(C(=O)O[C@@H]2CC[C@@]3(C)C(CC[C@]4(C)C3C(=O)C=C3C5[C@@H](C)[C@H](C)CC[C@]5(C)CC[C@]34C)[C@@]2(C)C(=O)O)cc(O)c1O (stereo partly drawn) [Compound 3, 3-O-(5′-O-methylgalloyl)-11-keto-β-boswellic acid] the “% inhibition @ 100 μM” value [1] was 27.4% and the LC50 [2] was 33 µM.

With CC1CCC2(C)CCC3(C)C(=CC(=O)C4C5(C)CCC(OC(=O)CCC(=O)O)C(C)(C(=O)O)C5CCC43C)C2C1C (stereo not drawn) [Compound 4, 3-O -Succinyl-11-keto-β-boswellic acid] the “% inhibition @ 250 μM” value [1] was 41.1% and the “LD50 in mcM” value [2] was 69.0 mcM.

With CC1CCC2(C)CCC3(C)C(=CC(=O)C4C5(C)CCC(OC(=O)C=Cc6ccc(O)cc6)C(C)(C(=O)O)C5CCC43C)C2C1C (stereo not drawn) [Compound 6, 3-O-[4′-Hydroxycinnamoyl]-11-keto-β-boswellic acid] the “% inhibition @ 250 μM” value [1] was 11.3% and the “LD50 in mcM” value [2] was 6.0 mcM.

In the case of COc1ccc(C=CC(=O)OC2CCC3(C)C(CCC4(C)C3C(=O)C=C3C5C(C)C(C)CCC5(C)CCC34C)C2(C)C(=O)O)cc1OC (stereo not drawn) [Compound 7, 3-O -(3′,4′-dimethoxycinnamoyl)-11-keto-β-boswellic acid], the “% inhibition @ 250 μM” value [1] was 17.8% and the “LD50 in mcM” value [2] was 6.2 mcM.

For COc1cc(C=CC(=O)OC2CCC3(C)C(CCC4(C)C3C(=O)C=C3C5C(C)C(C)CCC5(C)CCC34C)C2(C)C(=O)O)cc(O)c1O (stereo not drawn) [Compound 8, 3-O-(3′,4′-Dihydroxy-5′-methoxycinnamoyl)-11-keto-β-boswellic acid], the “% inhibition @ 250 μM” value [1] was 8.1% and the “LD50 in mcM” value [2] was 12.0 mcM.

In the case of COC(=O)C1(C)C(OC(=O)CNC(=O)OC(C)(C)C)CCC2(C)C1CCC1(C)C2C(=O)C=C2C3C(C)C(C)CCC3(C)CCC21C (stereo not drawn) [Compound 9, Methyl 3-O-(N-Boc-glycyl)-11-keto-β-boswellate], the “% inhibition @ 250 μM” value [1] was 16.7% and the “LD50 in mcM” value [2] was >100 mcM.

In the case of C[C@@H]1CC[C@]2(C)CC[C@]3(C)C(=CC(=O)C4[C@@]5(C)CC[C@@H](OC(=O)CN)[C@](C)(C(=O)O)C5CC[C@]43C)C2[C@H]1C (stereo partly drawn) [Compound 10, 3-O-Glycyl-11-keto-β-boswellic acid hydrochloride], the “% inhibition @ 100 μM” value [1] was 23.9% and the “LD50 in mcM” value [2] was 12.0 mcM.

For C[C@H](N)C(=O)O[C@@H]1CC[C@@]2(C)C(CC[C@]3(C)C2C(=O)C=C2C4[C@@H](C)[C@H](C)CC[C@]4(C)CC[C@]23C)[C@@]1(C)C(=O)O (stereo partly drawn) [Compound 11, 3-O-Alanyl-11-keto-β-boswellic acid hydrochloride], the “% inhibition @ 100 μM” value [1] was 33.6% and the “LD50 in mcM” value [2] was 29.0 mcM.

For COC(=O)[C@]1(C)C2CC[C@]3(C)C(C(=O)C=C4C5[C@@H](C)[C@H](C)CC[C@]5(C)CC[C@]43C)[C@@]2(C)CC[C@@H]1O (stereo partly drawn) [Compound 12, Methyl 3β-hydroxy-11-ketours-12-en-24-oate], the “% inhibition @ 250 μM” value [1] was 0.37% and the LC50 [2] was > 100 µM.

With COC(=O)[C@]1(C)C2CC[C@]3(C)C(C(=O)C=C4C5[C@@H](C)[C@H](C)CC[C@]5(C)CC[C@]43C)[C@@]2(C)CC[C@@H]1Br (stereo partly drawn) [Compound 13, Methyl 3β-bromo-11-ketours-12-en-24-oate] the “% inhibition @ 250 μM” value [1] was 17.6% and the LC50 [2] was > 100 µM.

For COC(=O)[C@@]1(C)C(C#N)CC[C@@]2(C)C1CC[C@]1(C)C2C(=O)C=C2C3[C@@H](C)[C@H](C)CC[C@]3(C)CC[C@]21C (stereo partly drawn) [Compound 14, Methyl 3α-cyano-11-ketours-12-en-24-oate], the “% inhibition @ 250 μM” value [1] was 3.71% and the LC50 [2] was > 100 µM.

With COC(=O)[C@]1(C)C2CC[C@]3(C)C(C(=O)C=C4C5[C@@H](C)[C@H](C)CC[C@]5(C)CC[C@]43C)[C@@]2(C)CC[C@H]1S (stereo partly drawn) [Compound 15, Methyl 3α-thiohydroxy-11-ketours-12-en-24-oate] the “% inhibition @ 250 μM” value [1] was 53.1% and the LC50 [2] was 5.2 µM.

With COC(=O)[C@@]1(C)/C(=N\O)CC[C@@]2(C)C1CC[C@]1(C)C2C(=O)C=C2C3[C@@H](C)[C@H](C)CC[C@]3(C)CC[C@]21C (some centres unmarked) [Compound 16, Methyl 3-oximino-11-ketours-12-en-24-oate] the “% inhibition @ 250 μM” value [1] was 41.6% and the LC50 [2] was > 100 µM.

For CC(=O)OC1CC[C@@]2(C)C(CC[C@]3(C)C2C(=O)C=C2C4[C@@H](C)[C@H](C)CC[C@]4(C)CC[C@]23C)[C@@H]1C (some centres unmarked) [Compound 17, 3-Acetoxy-11-keto-24-norurs-12-ene], the “% inhibition @ 250 μM” value [1] was 0% and the LC50 [2] was > 100 µM.

In the case of CC(=O)OC1CC[C@@]2(C)C(CC[C@]3(C)C2C(=O)C=C2C4[C@@H](C)[C@H](C)CC[C@]4(C)CC[C@]23C)[C@@]1(C)C(=O)OCCN(C)C (stereo partly drawn) [Compound 18, (2′-N,N-Dimethylaminoethyl) 3-O-acetyl-11-keto-β-boswellate], the “% inhibition @ 100 μM” value [1] was 25.4% and the LC50 [2] was > 100 µM.

With CC(=O)OC1CC[C@@]2(C)C(CC[C@]3(C)C2C(=O)C=C2C4[C@@H](C)[C@H](C)CC[C@]4(C)CC[C@]23C)[C@@]1(C)C(N)=O (stereo partly drawn) [Compound 19, 3-O-Acetyl-11-keto-β-boswellic acid amide] the “% inhibition @ 250 μM” value [1] was 35.8% and the LC50 [2] was 4.6 µM.

In the case of CC(=O)OC1CC[C@@]2(C)C(CC[C@]3(C)C2C(=O)C=C2C4[C@@H](C)[C@H](C)CC[C@]4(C)CC[C@]23C)[C@@]1(C)C(=O)NN (stereo partly drawn) [Compound 20, N-(3-O-Acetyl-11-keto-β-boswelloyl)-hydrazide], the “% inhibition @ 250 μM” value [1] was 54.3% and the LC50 [2] was 2.3 µM.

In the case of CC(=O)OC1CC[C@@]2(C)C(CC[C@]3(C)C2C(=O)C=C2C4[C@@H](C)[C@H](C)CC[C@]4(C)CC[C@]23C)[C@@]1(C)C(=O)NCCN (stereo partly drawn) [Compound 21, N-(3-O-Acetyl-11-keto-β-boswelloyl)-ethylenediamine], the “% inhibition @ 250 μM” value [1] was 76.6% and the LC50 [2] was 71 µM.

In the case of CC(=O)OC1CC[C@@]2(C)C(CC[C@]3(C)C2C(=O)C=C2C4[C@@H](C)[C@H](C)CC[C@]4(C)CC[C@]23C)[C@@]1(C)C(=O)NCCO (stereo partly drawn) [Compound 22, N-(3-O-Acetyl-11-keto-β-boswelloyl)-2-aminoethanol], the “% inhibition @ 250 μM” value [1] was 10.4% and the LC50 [2] was > 100 µM.

In the case of CC(=O)OC1CCC2(C)C(CCC3(C)C2C(=O)C=C2C4C(C)C(C)CCC4(C)CCC23C)C1(C)C(=O)N1CCNCC1 (stereo not drawn) [Compound 23, N-(3-O-Acetyl-11-keto-β-boswelloyl)-piperzine], the “% inhibition @ 100 μM” value [1] was 34.9% and the “LD50 in mcM” value [2] was 0.88 mcM.

With CC(=O)OC1CC[C@@]2(C)C(CC[C@]3(C)C2C(=O)C=C2C4[C@@H](C)[C@H](C)CC[C@]4(C)CC[C@]23C)[C@@]1(C)N=C=O (some centres unmarked) [Compound 24, 3-Acetoxy-11-keto-24-norurs-12-en-4-isocyanate] the “% inhibition @ 250 μM” value [1] was 0% and the LC50 [2] was > 100 µM.

In the case of CC(=O)OC1CC[C@@]2(C)C(CC[C@]3(C)C2C(=O)C=C2C4[C@@H](C)[C@H](C)CC[C@]4(C)CC[C@]23C)[C@@]1(C)N (some centres unmarked) [Compound 25, 3-Acetoxy-4-amino-11-keto-24-norurs-12-ene], the “% inhibition @ 250 μM” value [1] was 60.5% and the LC50 [2] was 6 µM.

For CC(=O)OC1CC[C@@]2(C)C(CC[C@]3(C)C2C(=O)C=C2C4[C@@H](C)[C@H](C)CC[C@]4(C)CC[C@]23C)[C@@]1(C)C#N (some centres unmarked) [Compound 26, 3-Acetoxy-4-cyano-11-keto-24-norurs-12-ene], the “% inhibition @ 250 μM” value [1] was 9.8% and the LC50 [2] was > 100 µM.

In the case of C[C@@H]1CC[C@]2(C)CC[C@]3(C)C(=CC(O)C4[C@@]5(C)CC[C@@H](O)[C@](C)(C(=O)O)C5CC[C@]43C)C2[C@H]1C (stereo partly drawn) [Compound 27, 11-Hydroxy-β-boswellic acid], the “% inhibition @ 250 μM” value [1] was 12.2% and the LC50 [2] was 28.3 µM.
